For orientation: IC50 means the point on the concentration scale where inhibition reaches its midpoint.

For 14 compounds, IC50 and Ki results are on record in ChEMBL document CHEMBL1909046, “DrugMatrix in vitro pharmacology data”.

Test [1] can be described thus: DRUGMATRIX: Glutamate, NMDA, Phencyclidine radioligand binding (ligand: [3H] TCP). In kind it is cell membranes, Rattus norvegicus, Wistar, Cerebral cortex, Membrane. The conditions noted are these: Not Active = under 50% inhibition at 10 µM.
Test [2] can be described thus: DRUGMATRIX: Leukotriene, BLT (LTB4) radioligand binding (ligand: [3H]LTB4). The format is cell membranes, Membrane. The conditions noted are these: u-937; Not Active = under 50% inhibition at 10 µM.
The target of test [3] is T1, Cysteinyl leukotriene receptor 1 (Homo sapiens, UniProt Q9Y271). Further: in other assays of this panel Not Active means under 50% inhibition at 10 µM.
T1 sequence (Q9Y271 whole entry): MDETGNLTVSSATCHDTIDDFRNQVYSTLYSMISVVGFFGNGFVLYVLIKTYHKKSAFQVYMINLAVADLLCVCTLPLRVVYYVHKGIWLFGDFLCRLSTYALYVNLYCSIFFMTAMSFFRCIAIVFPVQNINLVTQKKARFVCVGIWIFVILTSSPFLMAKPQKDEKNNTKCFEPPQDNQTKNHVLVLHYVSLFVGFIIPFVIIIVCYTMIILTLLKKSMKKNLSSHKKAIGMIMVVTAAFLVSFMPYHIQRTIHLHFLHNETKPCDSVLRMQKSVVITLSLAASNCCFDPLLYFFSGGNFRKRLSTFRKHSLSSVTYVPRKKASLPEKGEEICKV
In kind it is cell membranes, Membrane. The conditions noted are these: cho-k1.

The target of another test is Nitric oxide synthase 1 (Rattus norvegicus, UniProt P29476). The format is tissue-based, Cerebellum. Further: in other assays of this panel Not Active means under 50% inhibition at 10 µM.
Sequence of Nitric oxide synthase 1 (P29476 whole entry): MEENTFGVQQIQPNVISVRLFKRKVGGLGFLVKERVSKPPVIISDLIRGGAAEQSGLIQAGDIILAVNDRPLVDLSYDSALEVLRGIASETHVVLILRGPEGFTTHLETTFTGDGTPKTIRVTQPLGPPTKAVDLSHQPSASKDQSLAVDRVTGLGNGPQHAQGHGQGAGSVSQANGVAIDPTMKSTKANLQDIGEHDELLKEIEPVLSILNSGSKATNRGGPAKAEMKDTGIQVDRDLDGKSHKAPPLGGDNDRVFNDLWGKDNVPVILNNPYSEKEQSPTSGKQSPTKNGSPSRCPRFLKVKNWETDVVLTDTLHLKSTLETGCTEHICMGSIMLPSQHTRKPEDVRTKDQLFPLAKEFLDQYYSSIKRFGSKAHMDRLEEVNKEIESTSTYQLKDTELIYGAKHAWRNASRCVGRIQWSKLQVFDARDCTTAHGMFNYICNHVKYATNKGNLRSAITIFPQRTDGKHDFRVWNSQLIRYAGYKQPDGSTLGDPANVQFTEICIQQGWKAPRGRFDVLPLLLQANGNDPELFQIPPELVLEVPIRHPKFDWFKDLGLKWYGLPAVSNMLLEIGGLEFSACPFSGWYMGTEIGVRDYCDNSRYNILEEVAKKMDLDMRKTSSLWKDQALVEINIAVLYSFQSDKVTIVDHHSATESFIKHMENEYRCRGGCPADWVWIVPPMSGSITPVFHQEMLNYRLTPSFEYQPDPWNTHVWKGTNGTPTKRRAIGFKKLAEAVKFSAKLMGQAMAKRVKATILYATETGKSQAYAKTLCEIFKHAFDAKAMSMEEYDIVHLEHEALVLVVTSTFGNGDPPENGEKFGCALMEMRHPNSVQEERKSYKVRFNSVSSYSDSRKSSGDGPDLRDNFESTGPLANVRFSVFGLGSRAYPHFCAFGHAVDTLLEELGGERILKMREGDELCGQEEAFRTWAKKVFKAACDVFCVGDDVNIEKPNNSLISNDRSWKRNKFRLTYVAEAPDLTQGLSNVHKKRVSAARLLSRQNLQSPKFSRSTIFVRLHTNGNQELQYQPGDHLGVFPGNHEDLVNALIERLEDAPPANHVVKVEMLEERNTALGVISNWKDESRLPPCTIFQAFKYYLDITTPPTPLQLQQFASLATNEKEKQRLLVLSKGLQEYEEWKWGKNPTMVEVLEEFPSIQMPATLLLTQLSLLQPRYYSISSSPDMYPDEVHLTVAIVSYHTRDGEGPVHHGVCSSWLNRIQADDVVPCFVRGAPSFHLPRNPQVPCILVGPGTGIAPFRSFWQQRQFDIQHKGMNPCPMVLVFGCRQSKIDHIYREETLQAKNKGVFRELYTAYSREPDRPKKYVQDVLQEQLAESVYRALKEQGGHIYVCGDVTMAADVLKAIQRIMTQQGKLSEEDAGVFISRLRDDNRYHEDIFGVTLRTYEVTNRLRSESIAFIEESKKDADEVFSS
Test [4] deals with Delta-type opioid receptor (Homo sapiens, UniProt P41143). In kind it is cell membranes, HEK293, Membrane. Conditions: hek293.
Sequence of Delta-type opioid receptor (P41143 whole entry): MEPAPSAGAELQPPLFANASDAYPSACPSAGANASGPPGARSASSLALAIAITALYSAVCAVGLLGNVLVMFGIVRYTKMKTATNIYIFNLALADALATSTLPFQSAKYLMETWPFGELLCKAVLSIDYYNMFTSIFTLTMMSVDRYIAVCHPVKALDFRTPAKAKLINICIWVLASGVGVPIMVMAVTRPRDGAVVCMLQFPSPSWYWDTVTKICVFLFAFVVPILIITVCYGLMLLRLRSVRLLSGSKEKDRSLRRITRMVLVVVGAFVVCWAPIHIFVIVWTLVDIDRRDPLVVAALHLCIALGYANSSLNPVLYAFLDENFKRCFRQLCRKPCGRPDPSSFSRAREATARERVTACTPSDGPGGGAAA
Test [5] addresses Protein phosphatase 3 catalytic subunit alpha (Homo sapiens, UniProt Q08209). Also on record: species or system Escherichia coli.
Test [6] has as its target Epidermal growth factor receptor (Homo sapiens, UniProt P00533). As to the kind of experiment: DRUGMATRIX: Protein Tyrosine Kinase, EGF Receptor enzyme inhibition (substrate: Poly(Glu:Tyr)). The format is cell-based, Insect cells. Conditions: Not Active = under 50% inhibition at 10 µM.

With `CN[C@@H]1[C@H](O)[C@H](NC)[C@H]2O[C@@]3(O)C(=O)C[C@@H](C)O[C@H]3O[C@@H]2[C@H]1O` [SPECTINOMYCIN], the concentration for half-maximal inhibition (IC50) result (in test [1]; in test [2]; in test [3]; against Nitric oxide synthase 1; in test [4]; in test [5]) was “Not Active” throughout. The IC50 entry in test [6] (insect cells) was “Not Active”. For the same compound, the Ki entry in test [1] and in test [2] was “Not Active” throughout.
For `Nc1ccc(S(=O)(=O)Nc2ncccn2)cc1` [SULFADIAZINE], the IC50 entry (in test [1]; in test [2]; in test [3]; on Nitric oxide synthase 1; in test [4]; in test [5]) was “Not Active” each time. In addition, the IC50 entry in test [6] (insect cells) is “Not Active”. For the same compound, the Ki result in test [1] and in test [2] was “Not Active” in each case.
`COc1ncnc(NS(=O)(=O)c2ccc(N)cc2)c1OC` [SULFADOXINE]: the IC50 result (in test [1]; in test [2]; in test [3]; at Nitric oxide synthase 1; in test [4]; in test [5]) was “Not Active” in each case. Further, the half-maximal inhibitory concentration (IC50) entry in test [6] (insect cells) is “Not Active”. Further, the Ki entry in test [1] and in test [2] was “Not Active” each time.
Regarding `Nc1ccc(S(=O)(=O)Nc2nccs2)cc1` [SULFATHIAZOLE], the IC50 result (in test [1]; in test [2]; in test [3]; against Nitric oxide synthase 1; in test [4]; in test [5]) was “Not Active” each time. In addition, in test [6] (insect cells), the concentration for half-maximal inhibition (IC50) entry is recorded as “Not Active”. For the same compound, the Ki result in test [1] and in test [2] was “Not Active” throughout.
Take `C[C@]12CC[C@H]3[C@@H](CCC4=CC(=O)CC[C@@]43C)[C@@H]1CC[C@@H]2O` [TESTOSTERONE]: the half-maximal inhibitory concentration (IC50) result (in test [1]; in test [2]; in test [3]; against Nitric oxide synthase 1; in test [4]; in test [5]) was “Not Active” each time. In addition, in test [6] (insect cells), the half-inhibitory concentration (IC50) result is “Not Active”. For the same compound, the Ki result in test [1] and in test [2] was “Not Active” throughout.
Turning to `CC(C)(C)NC[C@H](O)COc1nsnc1N1CCOCC1` [TIMOLOL], the IC50 result (in test [1]; in test [2]; in test [3]; on Nitric oxide synthase 1; in test [4]; in test [5]) was “Not Active” throughout. Further, the concentration for half-maximal inhibition (IC50) result in test [6] (insect cells) is “Not Active”. Besides, the Ki entry in test [1] and in test [2] was “Not Active” in each case.
With `CCS(=O)(=O)CCn1c([N+](=O)[O-])cnc1C` [TINIDAZOLE], the IC50 entry (in test [1]; in test [2]; in test [3]; against Nitric oxide synthase 1; in test [4]; in test [5]) was “Not Active” throughout. In test [6] (insect cells), the IC50 result was “Not Active”. For the same compound, the Ki entry in test [1] and in test [2] was “Not Active” each time.
Take `C[C@@H]1C[C@H]2[C@@H]3CCC4=CC(=O)C=C[C@]4(C)C3=CC[C@]2(C)[C@H]1C(=O)CN1CCN(c2cc(N3CCCC3)nc(N3CCCC3)n2)CC1` [TIRILAZAD]: the half-inhibitory concentration (IC50) result (in test [1]; in test [2]; in test [3]; against Nitric oxide synthase 1; in test [4]; in test [5]) was “Not Active” throughout. In test [6] (read-out: IC50), the IC50 came out at 20.4 µM. The Ki entry in test [1] and in test [2] was “Not Active” throughout.
As to `NC[C@H]1O[C@H](O[C@H]2[C@H](O)[C@@H](O[C@H]3O[C@H](CO)[C@@H](O)[C@H](N)[C@H]3O)[C@H](N)C[C@@H]2N)[C@H](N)C[C@@H]1O` [TOBRAMYCIN], the 50% inhibitory concentration (IC50) entry (in test [1]; in test [2]; in test [3]; against Nitric oxide synthase 1; in test [4]; in test [5]) was “Not Active” in each case. The IC50 entry in test [6] (insect cells) is “Not Active”. In addition, the Ki entry in test [1] and in test [2] was “Not Active” throughout.
Turning to `O=C(O)C(Cl)(Cl)Cl` [TRICHLOROACETIC ACID], the IC50 entry (in test [1]; in test [2]; in test [3]; on Nitric oxide synthase 1; in test [4]; in test [5]) was “Not Active” each time. Moreover, in test [6] (insect cells), the half-maximal inhibitory concentration (IC50) entry is “Not Active”. Further, the Ki result in test [1] and in test [2] was “Not Active” in each case.
`COc1ccc(CN2CCNCC2)c(OC)c1OC` [TRIMETAZIDINE]: the concentration for half-maximal inhibition (IC50) result (in test [1]; in test [2]; in test [3]; on Nitric oxide synthase 1; in test [4]; in test [5]) was “Not Active” each time. The IC50 entry in test [6] (insect cells) was “Not Active”. Besides, the Ki result in test [1] and in test [2] was “Not Active” throughout.
For the compound `CC(=O)O[C@H]1C[C@@H]2CC[C@@H]3[C@H](CC[C@@]4(C)[C@H]3C[C@H]([N+]3(C)CCCCC3)[C@@H]4OC(C)=O)[C@@]2(C)C[C@@H]1N1CCCCC1.[Br-]` [VECURONIUM BROMIDE], the concentration for half-maximal inhibition (IC50) entry (in test [1]; in test [2]; in test [3]; against Nitric oxide synthase 1; in test [4]; in test [5]) was “Not Active” in each case. Besides, the 50% inhibitory concentration (IC50) entry in test [6] (insect cells) was “Not Active”. Further, the Ki result in test [1] and in test [2] was “Not Active” each time.
As for STANNOUS FLUORIDE, the IC50 entry (in test [1]; in test [2]; in test [3]; against Nitric oxide synthase 1; in test [4]; in test [5]) was “Not Active” each time. Moreover, in test [6] (insect cells), the IC50 entry was “Not Active”. In addition, the Ki result (in test [1]; in test [2]; in test [3]; at Nitric oxide synthase 1; in test [4]; in test [5]) was “Not Active” each time. Further, in test [6] (insect cells), the Ki entry was “Not Active”.
As for THIMEROSAL, the concentration for half-maximal inhibition (IC50) entry (in test [1]; in test [2]; in test [3]; at Nitric oxide synthase 1; in test [4]; in test [5]) was “Not Active” each time. Also, in test [6] (insect cells), the 50% inhibitory concentration (IC50) result is reported as “Not Active”. The Ki result (in test [1]; in test [2]; in test [3]; on Nitric oxide synthase 1; in test [4]; in test [5]) was “Not Active” each time. Also, the Ki result in test [6] (insect cells) is on record as “Not Active”.
